Experimental data as given in PubChem BioAssay AID1963971 (Molecular Pharmacology Branch, DTP, NCI, 2024).

System: 953936-095-R-J2-PDC spheroids with HUVEC/MSC, viability
Assay: Anticancer human tumor 953936-095-R-J2-PDC patient-derived cervical squamous cell carcinoma cell line growth inhibition [PI3K]
Details: for IC50: curve of first compound; for viability, T/C: stronger effect = lower value
Outline: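 Complex 3D spheroids (cancer cells + endothelial HUVEC + mesenchymal stem cells); drug pairs of targeted agent x inavolisib/alpelisib/duvelisib/copanlisib; half-log series from ~Cmax, max 10 microM if Cmax unknown; endpoint viability.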

[1] = second compound 0.0316 µM, first compound 0.0316 µM
[2] = second compound 0.0316 µM, first compound 0.1 µM
[3] = second compound 0.0316 µM, first compound 0.316 µM
[4] = second compound 0.0316 µM, first compound 1 µM
[5] = second compound 0.0316 µM, first compound 3.16 µM
[6] = second compound 0.0316 µM, first compound 10 µM
[7] = second compound 0.1 µM, first compound 0.0316 µM
[8] = second compound 0.1 µM, first compound 0.1 µM
[9] = second compound 0.1 µM, first compound 0.316 µM
[10] = second compound 0.1 µM, first compound 1 µM
[11] = second compound 0.1 µM, first compound 3.16 µM
[12] = second compound 0.1 µM, first compound 10 µM
[13] = second compound 0.316 µM, first compound 0.0316 µM
[14] = second compound 0.316 µM, first compound 0.1 µM
[15] = second compound 0.316 µM, first compound 0.316 µM
[16] = second compound 0.316 µM, first compound 1 µM
[17] = second compound 0.316 µM, first compound 3.16 µM
[18] = second compound 0.316 µM, first compound 10 µM
[19] = second compound 1 µM, first compound 0.0316 µM
[20] = second compound 1 µM, first compound 0.1 µM
[21] = second compound 1 µM, first compound 0.316 µM
[22] = second compound 1 µM, first compound 1 µM
[23] = second compound 1 µM, first compound 3.16 µM
[24] = second compound 1 µM, first compound 10 µM
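Note: spheroids exposed to compounds for seven days before read-out.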

Work on CC1(C)CCC(Nc2ncc(C(F)(F)F)c(-c3c[nH]c4c(P(C)(C)=O)c(C#N)ccc34)n2)CN1 (stereo unspecified) + COc1c(OCCCN2CCOCC2)ccc2c3n(c(=NC(=O)c4cnc(N)nc4)nc12)CCN3 yielded an IC50 (second compound 0.00316 µM) of 31.6 nM, an IC50 (second compound 0.01 µM) of under 31.6 nM and an IC50 (second compound 0.0316 µM) of under 31.6 nM. It also gave an IC50 (second compound 0.1 µM) of under 31.6 nM, an IC50 (second compound 0.316 µM) of under 31.6 nM and an IC50 (second compound 1 µM) of under 31.6 nM. The viability, T/C (second compound 0.00316 µM, first compound 0.0316 µM) was 45.6%, the viability, T/C (second compound 0.00316 µM, first compound 0.1 µM) was 47% and the viability, T/C (second compound 0.00316 µM, first compound 0.316 µM) was 53.5%. The viability, T/C (second compound 0.00316 µM, first compound 1 µM) was 47.1%, the viability, T/C (second compound 0.00316 µM, first compound 3.16 µM) was 52% and the viability, T/C (second compound 0.00316 µM, first compound 10 µM) was 5.49%. It also gave a viability, T/C (second compound 0.01 µM, first compound 0.0316 µM) of 46.2%, a viability, T/C (second compound 0.01 µM, first compound 0.1 µM) of 42.2% and a viability, T/C (second compound 0.01 µM, first compound 0.316 µM) of 49.5%. It also gave a viability, T/C (second compound 0.01 µM, first compound 1 µM) of 35.5%, a viability, T/C (second compound 0.01 µM, first compound 3.16 µM) of 44% and a viability, T/C (second compound 0.01 µM, first compound 10 µM) of 6.01%. The viability, T/C [1] was 26.9%, the viability, T/C [2] was 22.6% and the viability, T/C [3] was 25.4%. It also gave a viability, T/C [4] of 25.5%, a viability, T/C [5] of 24.4% and a viability, T/C [6] of 1.19%. For the same molecule, the viability, T/C [7] was 11.9%, the viability, T/C [8] was 16.5% and the viability, T/C [9] was 12.2%. It also gave a viability, T/C [10] of 11.8%, a viability, T/C [11] of 8.68% and a viability, T/C [12] of 0.34%. It also gave a viability, T/C [13] of 5.51%, a viability, T/C [14] of 5.07% and a viability, T/C [15] of 3.84%. The viability, T/C [16] was 4.98%, the viability, T/C [17] was 3.94% and the viability, T/C [18] was 0.16%. It also gave a viability, T/C [19] of 1.33%, a viability, T/C [20] of 1.62% and a viability, T/C [21] of 1.12%. It also gave a viability, T/C [22] of 1.34%, a viability, T/C [23] of 1.37% and a viability, T/C [24] of 0.31%.
With CNC(=O)c1ccc(N2C(=S)N(c3ccc(C#N)c(C(F)(F)F)c3)C(=O)C2(C)C)cc1F + Cc1nc(NC(=O)N2CCCC2C(N)=O)sc1-c1ccnc(C(C)(C)C(F)(F)F)c1 the IC50 (second compound 0.0316 µM) was over 10000 nM, the IC50 (second compound 0.1 µM) was over 10000 nM and the IC50 (second compound 0.316 µM) was over 10000 nM. For the same molecule, the IC50 (second compound 1 µM) was 53 nM, the IC50 (second compound 3.16 µM) was under 31.6 nM and the IC50 (second compound 10 µM) was under 31.6 nM. For the same molecule, the viability, T/C [1] was 85.4%, the viability, T/C [2] was 92.7% and the viability, T/C [3] was 108%. For the same molecule, the viability, T/C [4] was 105%, the viability, T/C [5] was 83.5% and the viability, T/C [6] was 79.7%. It also gave a viability, T/C [7] of 81.2%, a viability, T/C [8] of 93% and a viability, T/C [9] of 78.3%. It also gave a viability, T/C [10] of 76.9%, a viability, T/C [11] of 74.7% and a viability, T/C [12] of 73.9%. It also gave a viability, T/C [13] of 64.1%, a viability, T/C [14] of 65.9% and a viability, T/C [15] of 65.3%. It also gave a viability, T/C [16] of 59.9%, a viability, T/C [17] of 62.8% and a viability, T/C [18] of 54.3%. The viability, T/C [19] was 54.1%, the viability, T/C [20] was 44.2% and the viability, T/C [21] was 44.3%. For the same molecule, the viability, T/C [22] was 48.6%, the viability, T/C [23] was 41.4% and the viability, T/C [24] was 38.1%. For the same molecule, the viability, T/C (second compound 3.16 µM, first compound 0.0316 µM) was 26.6%, the viability, T/C (second compound 3.16 µM, first compound 0.1 µM) was 29.8% and the viability, T/C (second compound 3.16 µM, first compound 0.316 µM) was 24.4%. It also gave a viability, T/C (second compound 3.16 µM, first compound 1 µM) of 25.5%, a viability, T/C (second compound 3.16 µM, first compound 3.16 µM) of 30% and a viability, T/C (second compound 3.16 µM, first compound 10 µM) of 24.8%. The viability, T/C (second compound 10 µM, first compound 0.0316 µM) was 12.2%, the viability, T/C (second compound 10 µM, first compound 0.1 µM) was 11.2% and the viability, T/C (second compound 10 µM, first compound 0.316 µM) was 12.1%. For the same molecule, the viability, T/C (second compound 10 µM, first compound 1 µM) was 11%, the viability, T/C (second compound 10 µM, first compound 3.16 µM) was 11.6% and the viability, T/C (second compound 10 µM, first compound 10 µM) was 10.7%.
Molecule Cn1cnc2c(F)c(Nc3ccc(Br)cc3Cl)c(C(=O)NOCCO)cc21 + Cc1nc(NC(=O)N2CCCC2C(N)=O)sc1-c1ccnc(C(C)(C)C(F)(F)F)c1 has an IC50 (second compound 0.0316 µM) of 748 nM, an IC50 (second compound 0.1 µM) of 308 nM and an IC50 (second compound 0.316 µM) of 36.8 nM. For the same molecule, the IC50 (second compound 1 µM) was under 9.49 nM, the IC50 (second compound 3.16 µM) was under 9.49 nM and the IC50 (second compound 10 µM) was under 9.49 nM. For the same molecule, the viability, T/C (second compound 0.0316 µM, first compound 0.00949 µM) was 85.7%, the viability, T/C (second compound 0.0316 µM, first compound 0.03 µM) was 87.1% and the viability, T/C (second compound 0.0316 µM, first compound 0.0949 µM) was 74.3%. It also gave a viability, T/C (second compound 0.0316 µM, first compound 0.3 µM) of 59.4%, a viability, T/C (second compound 0.0316 µM, first compound 0.949 µM) of 49.5% and a viability, T/C (second compound 0.0316 µM, first compound 3 µM) of 31.9%. For the same molecule, the viability, T/C (second compound 0.1 µM, first compound 0.00949 µM) was 78.1%, the viability, T/C (second compound 0.1 µM, first compound 0.03 µM) was 70.1% and the viability, T/C (second compound 0.1 µM, first compound 0.0949 µM) was 52.7%. The viability, T/C (second compound 0.1 µM, first compound 0.3 µM) was 51.4%, the viability, T/C (second compound 0.1 µM, first compound 0.949 µM) was 47.4% and the viability, T/C (second compound 0.1 µM, first compound 3 µM) was 28.9%. It also gave a viability, T/C (second compound 0.316 µM, first compound 0.00949 µM) of 61.3%, a viability, T/C (second compound 0.316 µM, first compound 0.03 µM) of 50.8% and a viability, T/C (second compound 0.316 µM, first compound 0.0949 µM) of 43%. For the same molecule, the viability, T/C (second compound 0.316 µM, first compound 0.3 µM) was 33.9%, the viability, T/C (second compound 0.316 µM, first compound 0.949 µM) was 26.1% and the viability, T/C (second compound 0.316 µM, first compound 3 µM) was 20.1%. For the same molecule, the viability, T/C (second compound 1 µM, first compound 0.00949 µM) was 44%, the viability, T/C (second compound 1 µM, first compound 0.03 µM) was 35% and the viability, T/C (second compound 1 µM, first compound 0.0949 µM) was 24.9%. It also gave a viability, T/C (second compound 1 µM, first compound 0.3 µM) of 24.3%, a viability, T/C (second compound 1 µM, first compound 0.949 µM) of 12.1% and a viability, T/C (second compound 1 µM, first compound 3 µM) of 7.18%. The viability, T/C (second compound 3.16 µM, first compound 0.00949 µM) was 21.1%, the viability, T/C (second compound 3.16 µM, first compound 0.03 µM) was 15.3% and the viability, T/C (second compound 3.16 µM, first compound 0.0949 µM) was 11.3%. It also gave a viability, T/C (second compound 3.16 µM, first compound 0.3 µM) of 7.62%, a viability, T/C (second compound 3.16 µM, first compound 0.949 µM) of 5.36% and a viability, T/C (second compound 3.16 µM, first compound 3 µM) of 1.67%. It also gave a viability, T/C (second compound 10 µM, first compound 0.00949 µM) of 6.2%, a viability, T/C (second compound 10 µM, first compound 0.03 µM) of 5.44% and a viability, T/C (second compound 10 µM, first compound 0.0949 µM) of 4.18%. The viability, T/C (second compound 10 µM, first compound 0.3 µM) was 2.71%, the viability, T/C (second compound 10 µM, first compound 0.949 µM) was 1.25% and the viability, T/C (second compound 10 µM, first compound 3 µM) was 0.42%.
